What was measured:
EGF Receptor = target: T1, EGF Receptor (Homo sapiens, UniProt P00533); assay: bio EGF (EGF Receptor ELISA); assay type: biochemical
T1 construct: expressed in transfected cells; host or cells: NIH 3T3/C7 (mouse fibroblasts engineered to express human EGF-R)
Protocol: EGF Receptor kinase activity in cells genetically engineered to express human EGF-R was measured as described below:
The following materials and reagents were used:
b. 05-101 (UBI) (a monoclonal antibody recognizing an EGFR extracellular domain).
c. Anti-phosphotyrosine antibody (anti-Ptyr) (polyclonal).
d. Detection antibody: Goat anti-rabbit lgG horse radish peroxidase conjugate, TAGO, Inc., Burlingame, Calif.
Keep solution in dark at 4° C. until used.
The following protocol was used:
1. […] Coated plates are good for up to 10 days when stored at 4° C.
2. On day of use, remove coating buffer and replace with blocking buffer (5% Carnation Instant Non-Fat Dry Milk in PBS). Incubate the plate, shaking, at room temperature (about 23° C. to 25° C.) for 30 minutes. Just prior to use, remove blocking buffer and wash plate 4 times with TBST buffer.
2. Choose dishes having 80-90% confluence for the experiment. Trypsinize cells and stop reaction by adding 10% CS DMEM medium. Suspend cells in DMEM medium (10% CS DMEM medium) and centrifuge once at 1000 rpm at room temperature for 5 minutes.
3. Resuspend cells in seeding medium (DMEM, 0.5% bovine serum), and count the cells using trypan blue. Viability above 90% is acceptable. Seed cells in DMEM medium (0.5% bovine serum) at a density of 10,000 cells per well, 100 μL per well, in a 96 well microtiter plate. Incubate seeded cells in 5% CO2 at 37° C. for about 40 hours.
1. Check seeded cells for contamination using an inverted microscope. Dilute drug stock (10 mg/ml in DMSO) 1:10 in DMEM medium, then transfer 5 μL to a test well for a final drug dilution of 1:200 and a final DMSO concentration of 1%. Control wells receive DMSO alone. Incubate in 5% CO2 at 37° C. for one hour.
2. Prepare EGF ligand: dilute stock EGF in DMEM so that upon transfer of 10 μL dilute EGF (1:12 dilution), 25 nM final concentration is attained.
3. Prepare fresh 10 ml HNTG* sufficient for 100 μL per well wherein HNTG* comprises: HNTG stock (2.0 mL), milli-Q H2O (7.3 mL), EDTA, 100 mM, pH 7.0 (0.5 mL), Na3VO4 0.5 M (0.1 mL) and Na4(P2O7), 0.2 M (0.1 mL).
5. After two hours incubation with drug, add prepared EGF ligand to cells, 10 μL per well, to yield a final concentration of 25 nM. Control wells receive DMEM alone. Incubate, shaking, at room temperature, for 5 minutes.
6. Remove drug, EGF, and DMEM. Wash cells twice with PBS. Transfer HNTG* to cells, 100 μL per well. Place on ice for 5 minutes. Meanwhile, remove blocking buffer from other ELISA plate and wash with TBST as described above.
7. With a pipette tip securely fitted to a micropipettor, scrape cells from plate and homogenize cell material by repeatedly aspirating and dispensing the HNTG* lysis buffer. Transfer lysate to a coated, blocked, and washed ELISA plate. Incubate shaking at room temperature for one hour.
8. Remove lysate and wash 4 times with TBST. Transfer freshly diluted anti-Ptyr antibody to ELISA plate at 100 μL per well. Incubate shaking at room temperature for 30 minutes in the presence of the anti-Ptyr antiserum (1:3000 dilution in TBST).
9. Remove the anti-Ptyr antibody and wash 4 times with TBST. Transfer the freshly diluted TAGO 30 anti-rabbit IgG antibody to the ELISA plate at 100 μL per well. Incubate shaking at room temperature for 30 minutes (anti-rabbit IgG antibody: 1:3000 dilution in TBST).
10. Remove detection antibody and wash 4 times with TBST. Transfer freshly prepared ABTS/H2O2 solution to ELISA plate, 100 μL per well. Incubate at room temperature for 20 minutes. ABTS/H2O2 solution: 1.2 μL 30% H2O2in 10 mL ABTS stock.
11. Stop reaction by adding 50 μL 5N H2SO4 (optional), and determine O.D. at 410 nm.
12. The maximal phosphotyrosine signal is determined by subtracting the value of the negative controls from the positive controls. The percent inhibition of phosphotyrosine content for extract-containing wells is then calculated, after subtraction of the negative controls.

GST-Flk1 = GST-Flk1 (UniProt P35918); assay: GST-FLK-1 bioassay (bio flkGST); assay type: biochemical
Protocol: This assay analyzes the tyrosine kinase activity of GST-Flk1 on poly glu tyr peptides.
2. poly glu tyr 4:1, lyophilizate (Sigma Catalog # P0275). Prepare 1 mg/mL poly glu tyr in sterile PBS and store in 1 ml aliquots at −20° C.
3. Preparation of poly glu tyr (pEY) coated assay plates: Coat 2 μg/well of poly glu tyr (pEY) in 100 μL PBS at room temperature for 2 hours or at +4° C. overnight. Cover plates well to prevent evaporation.
4. PBS Buffer: To make 1 liter of a 1× working solution, mix […], 1.15 g NA2HPO4, 0.2 g KCl and 8 g NaCl in approx. 900 mL dH2O. When all reagents have dissolved, adjust the pH to 7.2 with HCl. Bring total volume to 1L with dH2O.
5. PBS-Tw Buffer: To 1L of PBS Buffer, add […] Tween-20. Stir until dissolved.
6. TBB-Blocking Buffer: To make one liter of a 1× working solution, mix 1.21 g TRIS, 8.77 g NaCl, 1 mL TWEEN-20 in approximately 900 mL dH2O. Adjust pH to 7.2 with HCl. Add 10 g BSA, stir to dissolve. Bring total volume to 1 L with dH2O. Filter to remove particulate matter.
7. 1% BSA in PBS: To make a 1× working solution, add 10 g BSA to approx. 990 mL PBS buffer, stir to dissolve. Adjust total volume to 1 L with PBS buffer, filter to remove particulate matter.
9. GST-Flk1cd purified from sf9 recombinant baculovirus transformation.
13. Kinase Dilution Buffer (KDB): Mix 10 mL Hepes (pH 7.5), 1 mL of 5 M NaCl, 40 μL of 100 mM NaVO4 and 0.4 mL of 5% BSA in dH2O with 88.56 mL of dH2O.
14. NUNC-96-well V bottom polypropylene plates Applied Scientific Catalog # AS-72092
15. EDTA: Mix 14.12 g ethylenediaminetetraacetic acid (EDTA) to approx. 70 mL dH2O. Add 10N NaOH until EDTA dissolves. Adjust pH to 8.0. Adjust total volume to 100 mL with dH2O.
16. 1° Antibody Dilution Buffer: Mix 10 mL of 5% BSA in PBS buffer with 89.5 mL TBSTw.
17. Anti-phosphotyrosine monoclonal conjugated to horseradish peroxidase (PY99 HRP, Santa Cruz Biotech).
18. 2,2′-Azino-bis(3-ethylbenzthiazoline-6-sulfonic acid (ABTS, Moss, Cat. No. ABST).
1. Coat Corning 96 well ELISA plates with 2 μg of polyEY peptide in sterile PBS as described in step 3 of Materials and Reagents.
2. Remove unbound liquid from wells by inverting plate. Wash once with TBSTw. Pat the plate on a paper towel to remove excess liquid.
3. Add 100 μL of 1% BSA in PBS to each well. Incubate, with shaking, for 1 hr. at room temperature.
5. Soak wells with 50 mM Hepes pH7.5 (150 μL/well).
6. Dilute test compound with dH2O/4% DMSO to 4 times the desired final assay concentration in 96-well polypropylene plates.
7. Add 25 μL diluted test compound to ELISA plate.
8. Add 25 μL of 40 mM MnCl2 with 4×ATP (2 μM) to all wells.
9. Add 25 μL 0.5 M EDTA to negative control wells.
10. Dilute GST-Flk1 0.005 μg (5 ng)/well in KDB. For 50 ml KDB add 100 μL of 0.050 mg/mL GST-Flk1 enzyme.
11. Add 50 μL of diluted enzyme to each well.
12. Incubate, with shaking, for 15 minutes at room temperature.
13. Stop reaction by adding 50 μL of 250 mM EDTA (pH 8.0).
14. Wash 3× with TBSTw and pat plate on paper towel to remove excess liquid.
15. Add 100 μL per well anti-phosphotyrosine HRP conjugate, 1:5,000 dilution in antibody dilution buffer. Incubate, with shaking for 90 min. at room temperature.
16. Wash as described above in step 14.
17. Add 100 μL of room temperature ABTS solution to each well.
18. Incubate, with shaking, for 10 to 15 minutes. Remove any bubbles.
19. Stop reaction by adding 20 μL of 10% SDS.
20. Read assay on Dynatech MR7000 ELISA reader: test filter at 410 nM; reference filter at 630 nM.

T1 sequence (P00533 25-1210): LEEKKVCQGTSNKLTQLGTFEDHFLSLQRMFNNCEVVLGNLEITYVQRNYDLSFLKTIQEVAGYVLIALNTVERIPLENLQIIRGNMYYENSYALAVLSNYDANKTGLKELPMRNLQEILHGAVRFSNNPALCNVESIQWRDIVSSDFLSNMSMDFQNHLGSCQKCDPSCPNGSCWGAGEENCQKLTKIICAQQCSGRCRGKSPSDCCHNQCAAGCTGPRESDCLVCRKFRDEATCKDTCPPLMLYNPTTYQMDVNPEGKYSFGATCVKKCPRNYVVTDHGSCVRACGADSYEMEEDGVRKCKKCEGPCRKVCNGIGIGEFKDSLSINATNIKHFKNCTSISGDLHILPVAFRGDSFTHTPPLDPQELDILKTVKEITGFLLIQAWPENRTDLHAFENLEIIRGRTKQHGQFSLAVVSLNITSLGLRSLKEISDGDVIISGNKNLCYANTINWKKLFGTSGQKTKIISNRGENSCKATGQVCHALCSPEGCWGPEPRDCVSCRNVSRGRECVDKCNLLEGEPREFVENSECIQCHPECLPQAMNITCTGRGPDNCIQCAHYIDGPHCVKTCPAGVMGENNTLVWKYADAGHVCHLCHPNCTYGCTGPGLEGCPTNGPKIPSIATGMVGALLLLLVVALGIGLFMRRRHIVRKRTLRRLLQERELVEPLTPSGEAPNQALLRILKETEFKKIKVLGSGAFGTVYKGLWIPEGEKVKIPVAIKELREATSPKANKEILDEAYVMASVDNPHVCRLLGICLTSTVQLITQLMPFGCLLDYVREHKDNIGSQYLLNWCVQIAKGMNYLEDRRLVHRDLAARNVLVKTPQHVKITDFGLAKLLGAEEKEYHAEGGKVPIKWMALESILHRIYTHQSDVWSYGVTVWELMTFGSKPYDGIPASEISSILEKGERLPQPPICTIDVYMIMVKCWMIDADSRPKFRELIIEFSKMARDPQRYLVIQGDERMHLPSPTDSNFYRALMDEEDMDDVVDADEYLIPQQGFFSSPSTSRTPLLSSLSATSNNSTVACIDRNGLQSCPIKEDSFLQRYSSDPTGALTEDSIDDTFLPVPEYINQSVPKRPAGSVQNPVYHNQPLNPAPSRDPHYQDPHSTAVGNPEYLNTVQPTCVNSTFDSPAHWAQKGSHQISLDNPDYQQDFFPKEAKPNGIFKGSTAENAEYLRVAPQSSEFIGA

Row | SMILES | IC50 (EGF Receptor) [µM] | IC50 (GST-Flk1) [µM]
1 | O=C1Nc2ccc(Br)cc2C1=Cc1cc2cc(OCCN3CCCC3)ccc2[nH]1 [IN-014, 5-bromo-3-[5-(2-pyrrolidin-1-yl-ethoxy)-1H-indol-2-ylmethylene]-1,3-dihydro-indol-2-one] | 43.5 | 0.003
2 | NS(=O)(=O)c1ccc2c(c1)C(=Cc1cc3cc(OCCN4CCCC4)ccc3[nH]1)C(=O)N2 [IN-039, 2-oxo-3-[5-(2-pyrrolidin-1-yl-ethoxy)-1H-indol-2-ylmethylene]-2,3-dihydro-1H-indole-5-sulfonic acid amide] | > 100 | 0.17
3 | Cc1[nH]c2ccccc2c1C=C1C(=O)Nc2ccc(S(N)(=O)=O)cc21 [IN-066, 3-(2-methyl-1H-indol-3-ylmethylene)-2-oxo-2,3-dihydro-1H-indole-5-sulfonic acid amide] | > 100 | > 20
4 | O=C1Nc2cc(-c3cccnc3)ccc2C1=Cc1cc2cc(OCCN3CCCC3)ccc2[nH]1 [IN-025, 6-pyridin-3-yl-3-[5-(2-pyrrolidin-1-yl-ethoxy)-1H-indol-2-ylmethylene]-1,3-dihydro-indol-2-one] | > 20 | 0.14
5 | O=C1Nc2ccc(C(=O)O)cc2C1=Cc1cc2cc(OCCN3CCCC3)ccc2[nH]1 [IN-022, 2-oxo-3-[5-(2-pyrrolidin-1-yl-ethoxy)-1H-indol-2-ylmethylene]-2,3-dihydro-1H-indole-5-carboxylic acid] | > 20 | 0.14
6 | CN(C)S(=O)(=O)c1ccc2c(c1)C(=Cc1cc3ccccc3[nH]1)C(=O)N2 [IN-075, 3-(1H-indol-2-ylmethylene)-2-oxo-2,3-dihydro-1H-indole-5-sulfonic acid dimethylamide] | > 100 | 6.51
7 | O=C1Nc2cc(-c3ccc(F)cc3)ccc2C1=Cc1cc2cc(OCCN3CCOCC3)ccc2[nH]1 [IN-038, 6-(4-fluoro-phenyl)-3-[5-(2-morpholin-4-yl-ethoxy)-1H-indol-2-ylmethylene]-1,3-dihydro-indol-2-one] | > 20 | > 10
8 | COc1cccc(-c2ccc3c(c2)NC(=O)C3=Cc2cc3cc(OCCN4CCOCC4)ccc3[nH]2)c1 [IN-036, 6-(3-methoxy-phenyl)-3-[5-(2-morpholin-4-yl-ethoxy)-1H-indol-2-ylmethylene]-1,3-dihydro-indol-2-one] | > 20 | > 20
9 | NS(=O)(=O)c1ccc2c(c1)C(=Cc1c[nH]c3ccccc13)C(=O)N2 [IN-065, 3-(1H-indol-3-ylmethylene)-2-oxo-2,3-dihydro-1H-indole-5-sulfonic acid amide] |  | 11.7

Results, then the compound that gave them:

Row | IC50 (EGF Receptor) [µM] | IC50 (GST-Flk1) [µM] | SMILES
10 | > 100 | 5.41 | CCN(CC)CCOc1ccc2[nH]c(C=C3C(=O)Nc4cc(-c5ccccc5)ccc43)cc2c1 [IN-018, 3-[5-(2-diethylamino-ethoxy)-1H-indol-2-ylmethylene]-6-phenyl-1,3-dihydro-indol-2-one]
11 | 9.55 | 0.16 | CCN(CC)CCOc1ccc2[nH]c(C=C3C(=O)Nc4ccc(-c5ccccc5)cc43)cc2c1 [IN-019, 3-[5-(2-diethylamino-ethoxy)-1H-indol-2-ylmethylene]-5-phenyl-1,3-dihydro-indol-2-one]
12 | > 100 | 0.86 | CCN(CC)CCCc1ccc2[nH]c(C=C3C(=O)Nc4ccccc43)cc2c1 [IN-001, 3-[5-(3-diethylamino-propyl)-1H-indol-2-ylmethylene]-1,3-dihydro-indol-2-one]
13 | 88.8 | 0.35 | CN(C)CCOc1ccc2[nH]c(C=C3C(=O)Nc4ccccc43)cc2c1 [IN-010, 3-[5-(2-dimethylamino-ethoxy)-1H-indol-2-ylmethylene]-1,3-dihydro-indol-2-one]
14 | 2.57 | 0.47 | CCN(CC)CCCc1ccc2[nH]c(C=C3C(=O)Nc4ccc(-c5ccccc5)cc43)cc2c1 [IN-004, 3-[5-(3-diethylamino-propyl)-1H-indol-2-ylmethylene]-5-phenyl-1,3-dihydro-indol-2-one]
15 | 4.69 | 0.16 | O=C1Nc2ccc(-c3ccccc3)cc2C1=Cc1cc2cc(OCCN3CCCC3)ccc2[nH]1 [IN-006, 5-phenyl-3-[5-(2-pyrrolidin-1-yl-ethoxy)-1H-indol-2-ylmethylene]-1,3-dihydro-indol-2-one]

From patent US6706709B2, “Indolinone derivatives as protein kinase/phosphatase inhibitors” (Sugen, Inc., priority 2000, dated 2004)
